Molecular target: ABCB1 (MDR1/P-glycoprotein) (Homo sapiens, UniProt P08183)
Assay: Vi-sensitive ATPase stimulation in High Five insect cell membrane vesicles; also rhodamine […]/doxorubicin accumulation in ABCB1-overexpressing cells
Type: biochemical

Chain of ABCB1 (MDR1/P-glycoprotein) (P08183 whole entry): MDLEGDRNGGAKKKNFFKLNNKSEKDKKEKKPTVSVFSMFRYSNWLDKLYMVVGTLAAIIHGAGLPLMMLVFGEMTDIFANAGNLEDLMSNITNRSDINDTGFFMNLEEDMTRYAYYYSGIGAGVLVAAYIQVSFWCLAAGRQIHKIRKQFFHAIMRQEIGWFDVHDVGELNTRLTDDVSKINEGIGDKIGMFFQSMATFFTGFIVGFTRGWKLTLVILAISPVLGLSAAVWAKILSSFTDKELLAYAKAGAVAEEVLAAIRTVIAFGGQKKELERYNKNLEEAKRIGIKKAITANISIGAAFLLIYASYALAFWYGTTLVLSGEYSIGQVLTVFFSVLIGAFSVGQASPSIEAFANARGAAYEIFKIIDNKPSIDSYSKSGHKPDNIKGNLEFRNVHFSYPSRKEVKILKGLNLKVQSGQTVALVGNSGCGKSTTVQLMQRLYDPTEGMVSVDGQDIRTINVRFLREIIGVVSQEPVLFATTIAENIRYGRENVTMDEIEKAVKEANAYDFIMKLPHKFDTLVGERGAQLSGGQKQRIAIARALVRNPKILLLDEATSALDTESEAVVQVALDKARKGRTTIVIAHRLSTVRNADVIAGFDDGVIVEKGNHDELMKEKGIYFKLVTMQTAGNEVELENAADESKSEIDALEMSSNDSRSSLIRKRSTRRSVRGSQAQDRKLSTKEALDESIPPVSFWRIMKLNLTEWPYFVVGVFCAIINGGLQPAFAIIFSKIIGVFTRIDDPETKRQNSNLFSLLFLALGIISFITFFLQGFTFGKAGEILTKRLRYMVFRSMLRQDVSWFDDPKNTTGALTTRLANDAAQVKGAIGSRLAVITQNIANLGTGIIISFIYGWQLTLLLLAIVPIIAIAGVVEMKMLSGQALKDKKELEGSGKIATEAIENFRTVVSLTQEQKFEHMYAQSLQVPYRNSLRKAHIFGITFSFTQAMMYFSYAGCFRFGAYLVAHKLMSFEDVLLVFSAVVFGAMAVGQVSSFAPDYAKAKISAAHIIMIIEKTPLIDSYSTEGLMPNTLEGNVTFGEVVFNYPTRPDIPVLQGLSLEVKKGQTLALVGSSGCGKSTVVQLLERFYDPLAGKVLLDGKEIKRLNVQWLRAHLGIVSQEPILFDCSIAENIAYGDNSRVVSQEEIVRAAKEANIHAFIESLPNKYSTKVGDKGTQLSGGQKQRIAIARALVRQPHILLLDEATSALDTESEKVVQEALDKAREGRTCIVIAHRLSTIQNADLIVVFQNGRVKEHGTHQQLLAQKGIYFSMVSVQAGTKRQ

In the case of `CC(=O)Nc1cccc(-n2c(=O)n(C3CC3)c(=O)c3c(Nc4ccc(I)cc4F)n(C)c(=O)c(C)c32)c1` [Trametinib], the EC50 is reported as 1020 nM.
